Consider two compounds from patent publication EP2835136A1, “Somatostatin Receptor Modulator for the treatment of infertility” (PregLem S.A., priority 2013, dated 2015).

One assay addresses hsst4 (Homo sapiens, UniProt P31391). The assay is described as follows: in vitro binding assay, hsst4.
The next assay addresses hsst1 (Homo sapiens, UniProt P30872). Kind of assay: in vitro binding assay, hsst1.
The next assay concerns the target hsst2 (Homo sapiens, UniProt P30874). The assay is described as follows: in vitro binding assay, hsst2.
The next assay concerns the target hsst3 (Homo sapiens, UniProt P32745). Kind of assay: in vitro binding assay, hsst3.
The next assay concerns the target hsst5 (Homo sapiens, UniProt P35346). The assay is described as follows: in vitro binding assay, hsst5.

Molecules are shown by their SMILES. Bridge positions count the residues as written; N and C are the ends. Square brackets hold non-standard residues; d marks the D form. Peptide text beside a SMILES is read from it. Phe(4-Cl) = N[C@@H](Cc1ccc(Cl)cc1)C(=O)O; 2Nal = N[C@@H](Cc1ccc2ccccc2c1)C(=O)O; 4Pal = N[C@@H](Cc1ccncc1)C(=O)O; NMeK = CN[C@@H](CCCCN)C(=O)O

hsst3, sequence (P32745 whole entry): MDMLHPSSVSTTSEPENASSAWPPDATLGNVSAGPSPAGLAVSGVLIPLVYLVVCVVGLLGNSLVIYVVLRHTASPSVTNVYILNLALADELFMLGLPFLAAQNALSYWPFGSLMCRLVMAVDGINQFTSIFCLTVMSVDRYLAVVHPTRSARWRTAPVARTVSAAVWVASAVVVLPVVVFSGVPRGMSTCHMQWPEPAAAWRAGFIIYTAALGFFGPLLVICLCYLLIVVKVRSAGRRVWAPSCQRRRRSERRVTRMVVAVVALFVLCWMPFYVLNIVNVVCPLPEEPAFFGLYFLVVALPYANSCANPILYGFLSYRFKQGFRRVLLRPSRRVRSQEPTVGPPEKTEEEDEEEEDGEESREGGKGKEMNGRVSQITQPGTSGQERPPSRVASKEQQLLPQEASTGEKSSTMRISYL
hsst1, sequence (P30872 whole entry): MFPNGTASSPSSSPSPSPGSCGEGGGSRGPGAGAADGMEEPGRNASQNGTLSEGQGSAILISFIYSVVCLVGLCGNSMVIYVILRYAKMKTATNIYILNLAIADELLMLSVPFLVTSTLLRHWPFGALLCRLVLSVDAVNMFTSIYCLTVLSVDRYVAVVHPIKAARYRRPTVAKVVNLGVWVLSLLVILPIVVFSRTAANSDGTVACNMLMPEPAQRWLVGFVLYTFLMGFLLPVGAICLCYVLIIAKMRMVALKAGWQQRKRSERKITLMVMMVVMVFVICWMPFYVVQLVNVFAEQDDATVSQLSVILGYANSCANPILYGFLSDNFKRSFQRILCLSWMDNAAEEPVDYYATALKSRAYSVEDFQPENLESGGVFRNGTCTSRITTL
hsst4, sequence (P31391 whole entry): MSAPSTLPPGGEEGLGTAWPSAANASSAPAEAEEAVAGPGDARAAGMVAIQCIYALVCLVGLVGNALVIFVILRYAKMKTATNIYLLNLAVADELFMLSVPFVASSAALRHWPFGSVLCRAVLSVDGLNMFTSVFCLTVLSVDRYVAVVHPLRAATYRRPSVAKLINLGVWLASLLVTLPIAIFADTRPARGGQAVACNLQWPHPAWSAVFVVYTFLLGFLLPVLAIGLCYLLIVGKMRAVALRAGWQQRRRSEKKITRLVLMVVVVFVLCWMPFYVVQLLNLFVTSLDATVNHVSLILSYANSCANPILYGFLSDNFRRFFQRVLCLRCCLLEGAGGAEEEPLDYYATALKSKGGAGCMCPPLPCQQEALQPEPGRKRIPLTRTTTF
hsst2, sequence (P30874 whole entry): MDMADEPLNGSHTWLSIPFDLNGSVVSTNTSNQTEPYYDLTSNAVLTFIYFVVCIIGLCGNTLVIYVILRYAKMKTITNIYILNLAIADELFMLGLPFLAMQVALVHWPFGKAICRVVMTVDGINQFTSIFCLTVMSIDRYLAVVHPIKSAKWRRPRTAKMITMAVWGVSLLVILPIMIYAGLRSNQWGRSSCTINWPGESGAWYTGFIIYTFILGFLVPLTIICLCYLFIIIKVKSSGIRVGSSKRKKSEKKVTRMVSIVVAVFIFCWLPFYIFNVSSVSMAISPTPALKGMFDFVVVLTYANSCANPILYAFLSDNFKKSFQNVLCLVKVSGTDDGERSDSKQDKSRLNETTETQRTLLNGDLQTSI
hsst5, sequence (P35346 whole entry): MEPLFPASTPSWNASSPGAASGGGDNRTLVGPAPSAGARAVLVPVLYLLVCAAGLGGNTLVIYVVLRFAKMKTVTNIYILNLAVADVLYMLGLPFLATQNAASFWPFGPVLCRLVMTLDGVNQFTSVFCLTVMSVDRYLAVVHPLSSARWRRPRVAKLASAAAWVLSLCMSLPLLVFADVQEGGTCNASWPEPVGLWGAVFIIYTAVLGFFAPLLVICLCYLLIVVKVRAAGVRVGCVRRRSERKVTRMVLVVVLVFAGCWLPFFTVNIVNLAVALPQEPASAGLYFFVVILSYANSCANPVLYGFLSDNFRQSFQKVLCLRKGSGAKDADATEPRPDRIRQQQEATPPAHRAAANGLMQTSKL

Broadly, the Ki is a dissociation constant, usually derived from enzyme kinetics or from competition with a known ligand. `C[C@@H](O)[C@@H]1NC(=O)[C@H](CCCCN)NC(=O)[C@@H](Cc2c[nH]c3ccccc23)NC(=O)[C@H](Cc2ccncc2)NC(=O)[C@H](NC(=O)[C@@H](N)Cc2ccc(Cl)cc2)CSSC[C@@H](C(=O)N[C@@H](Cc2ccc3ccccc3c2)C(N)=O)NC1=O` [Compound "A", Cpa-[D-Cys-4-Pal-D-Trp-Lys-Thr-Cys]-2-Nal-NH2]: the Ki at hsst4 amounted to 711 nM; on hsst1 it was 2760 nM; on hsst2, 6.4 nM; at hsst3, 44 nM; on hsst5, 86 nM.
With `C[C@@H](O)[C@@H]1NC(=O)[C@H](CCCCN)N(C)C(=O)[C@@H](Cc2c[nH]c3ccccc23)NC(=O)[C@H](Cc2ccncc2)NC(=O)[C@H](NC(=O)[C@@H](N)Cc2ccc(Cl)cc2)CSSC[C@@H](C(=O)N[C@@H](Cc2ccc3ccccc3c2)C(N)=O)NC1=O` [Compound "B", Cpa-[D-Cys-4-Pal-D-Trp-N-Me-Lys-Thr-Cys]-2-Nal-NH2] (H-[Phe(4-Cl)][dC][4Pal][dW][NMeK]TC[2Nal]-NH2; disulfide 2-7), the inhibition constant Ki at hsst4 amounted to 1000 nM; at hsst1, 1000 nM; on hsst2, 17.1 nM; on hsst3, 66 nM; on hsst5, 6 nM.
